ChEMBL document CHEMBL3046967, “Synthesis and Fungicidal Activities of 2-(-Methoxyiminobenzyl)-1-methylimidazole Derivatives” (2001)

Key:
Assay type in all cases: functional
[1] = system: Podosphaera fuliginea; test: Antifungal activity against Podosphaera fuliginea in cucumber at 125 ppm
[2] = system: Pseudoperonospora cubensis; test: Antifungal activity against Pseudoperonospora cubensis in cucumber at 500 ppm
[3] = system: Podosphaera fuliginea; test: Antifungal activity against Podosphaera fuliginea in cucumber at 2 ppm
[4] = system: Pseudoperonospora cubensis; test: Antifungal activity against Pseudoperonospora cubensis in cucumber at 7.8 ppm
[5] = system: Podosphaera fuliginea; test: Antifungal activity against Podosphaera fuliginea in cucumber at 7.8 ppm
[6] = system: Podosphaera fuliginea; test: Antifungal activity against Podosphaera fuliginea in cucumber at 31.3 ppm
[7] = system: Pseudoperonospora cubensis; test: Antifungal activity against Pseudoperonospora cubensis in cucumber at 2 ppm
[8] = system: Botrytis cinerea; test: Antifungal activity against Botryotinia fuckeliana in cucumber at 7.8 ppm
[9] = system: Botrytis cinerea; test: Antifungal activity against Botryotinia fuckeliana in cucumber at 500 ppm
[10] = system: Pseudoperonospora cubensis; test: Antifungal activity against Pseudoperonospora cubensis in cucumber at 125 ppm
[11] = system: Pseudoperonospora cubensis; test: Antifungal activity against Pseudoperonospora cubensis in cucumber at 31.3 ppm
[12] = system: Podosphaera fuliginea; test: Antifungal activity against Podosphaera fuliginea in cucumber at 500 ppm

For `CO/N=C(\c1ccccc1/C=N/OC(C)c1ccccc1C(F)(F)F)c1nccn1C` (stereo not drawn), the Activity [1] was 90% and the Activity [2] was <50%.

`CO/N=C(\c1ccccc1/C=N/OC(C)c1cccc(C(F)(F)F)c1)c1nccn1C` (stereo not drawn) gave an Activity [2] of 50% and an Activity [3] of 90%.

Work on `CO/N=C(\c1ccccc1/C=N/OC(C)c1ccc(Br)cc1)c1nccn1C` (stereo not drawn) yielded an Activity [4] of 50% and an Activity [5] of 90%.

In the case of `CO/N=C(\c1ccccc1/C=N/OC(C)c1ccc(OC)cc1)c1nccn1C` (stereo not drawn), the Activity [6] is reported as 90% and the Activity [2] is reported as <50%.

For `CO/N=C(\c1ccccc1/C=N/OC(C)c1ccc(OC(F)(F)F)cc1)c1nccn1C` (stereo not drawn), the Activity [7] was 50% and the Activity [3] was 90%.

With `CO/N=C(\c1ccccc1/C=N/OC(C)c1ccc(Cl)cc1Cl)c1nccn1C` (stereo not drawn) the Activity [6] was 90% and the Activity [2] was <50%.

With `CO/N=C(\c1ccccc1/C=N/OCc1ccc(Cl)cc1)c1nccn1C` the Activity [2] was <50% and the Activity [5] was 90%.

`CCC(O/N=C/c1ccccc1/C(=N\OC)c1nccn1C)c1ccc(Cl)c(Cl)c1` (stereo not drawn) gave an Activity [6] of 90% and an Activity [4] of 50%.

With `CO/N=C(\c1ccccc1COc1ccc(Cl)cc1C)c1nccn1C` the Activity [2] was <50%, the Activity [8] was 50% and the Activity [3] was 90%.

`CO/N=C(\c1ccccc1COc1ccc(Cl)cn1)c1nccn1C` gave an Activity [6] of 90%, an Activity [9] of 50% and an Activity [2] of 50%.

Compound `CO/N=C(\c1ccccc1COc1ccc(C(F)(F)F)cn1)c1nccn1C` has an Activity [9] of 50%, an Activity [2] of 50% and an Activity [5] of 90%.

Work on `CO/N=C(\c1ccccc1COc1ncc(Cl)cc1Cl)c1nccn1C` yielded an Activity [9] of 50%, an Activity [10] of 50% and an Activity [5] of 90%.

With `CO/N=C(\c1ccccc1/C=N/N=C(/C)c1ccc(Cl)cc1)c1nccn1C` the Activity [6] was 90%, the Activity [9] was <50% and the Activity [11] was 50%.

In the case of `CO/N=C(\c1ccccc1/C=N/N=C(/C)c1ccc(C(F)(F)F)cc1)c1nccn1C`, the Activity [9] is reported as <50%, the Activity [4] is reported as 50% and the Activity [5] is reported as 90%.

With `CO/N=C(\c1ccccc1/C=N/N=C(/C)c1ccc(Cl)c(Cl)c1)c1nccn1C` the Activity [9] was <50%, the Activity [4] was 50% and the Activity [5] was 90%.

`CO/N=C(\c1ccccc1/C=N/OC(C)c1ccc(Cl)cc1)c1nccn1C` (stereo not drawn) showed an Activity [9] of 50%, an Activity [4] of 50% and an Activity [3] of 90%.

`CO/N=C(\c1ccccc1/C=N/OC(C)c1ccc(C(F)(F)F)cc1)c1nccn1C` (stereo not drawn) was tested, and the Activity [7] was 50%, the Activity [9] was <50% and the Activity [3] was 90%.

In the case of `CO/N=C(\c1ccccc1/C=N/OC(C)c1ccc(Cl)c(Cl)c1)c1nccn1C` (stereo not drawn), the Activity [9] is reported as 50%, the Activity [4] is reported as 50% and the Activity [3] is reported as 90%.

With `CO/N=C(\c1ccccc1/C=N/OC(C)c1ccccc1)c1nccn1C` (stereo not drawn) the Activity [1] was 90% and the Activity [2] was <50%.

With `CO/N=C(\c1ccccc1/C=N/OC(C)c1ccccc1Cl)c1nccn1C` (stereo not drawn) the Activity [1] was 90% and the Activity [2] was <50%.

In the case of `CO/N=C(\c1ccccc1/C=N/OC(C)c1cccc(Cl)c1)c1nccn1C` (stereo not drawn), the Activity [1] is reported as 90% and the Activity [2] is reported as <50%.

`CO/N=C(\c1ccccc1/C=N/OC(C)c1ccccc1C)c1nccn1C` (stereo not drawn) was tested, and the Activity [12] was 90% and the Activity [2] was <50%.

With `CO/N=C(\c1ccccc1/C=N/OC(C)c1cccc(C)c1)c1nccn1C` (stereo not drawn) the Activity [6] was 90% and the Activity [2] was <50%.

With `CO/N=C(\c1ccccc1/C=N/OC(C)c1ccc(C)cc1)c1nccn1C` (stereo not drawn) the Activity [6] was 90% and the Activity [2] was <50%.
